We go through 24 compounds from patent publication US12415771B2, “Compounds for the treatment of neuromuscular disorders” (NMD PHARMA A/S, priority 2019, dated 2025).

Where two headings read alike, the source gives them in different places.

In assay [1] the test system is isolated rat soleus muscles. Description: Recovery of nerve-stimulated contractile force in isolated rat soleus nerve-muscle preparation exposed to tubocurarine. Particulars: for activation at 50 µM: 40 min, read-out: Point increase (%) of initial force that was restored. The procedure: Recovery of force is quantified as the percentage of the force prior to tubocurarine that is recovered by the compound.
The current disclosure relates to compounds that inhibit CIC-1 ion channels and increase muscle excitability and thereby improve muscle function in clinical conditions where muscle activation is failing. Such conditions result in loss of contractile function of skeletal muscle, weakness and excessive fatigue. In this series of experiments the compounds were tested for their ability to restore contractile function of isolated rat muscle when the neuromuscular transmission had been compromised akin to neuromuscular disorders.
Experimentally, soleus muscles from 4-5 wk old rats were isolated with the motor nerve remaining attached. The nerve-muscle preparations were mounted in experimental setups that enabled electrical stimulation of the motor nerve. Stimulation of the motor nerve led to activation of the muscle fibres and ensuing force production that was recorded.
After mounting the nerve-muscle preparation in the experimental setup, the contractile function of the muscle was initially assessed under the control conditions (FIG. 2A). […] The experimental condition mimics the failing neuromuscular transmission in a range of neuromuscular disorders. After addition of tubocurarine the contractile force declined over the next 90 mins to 10-50% of the control force. 50 μM of the test compound was then added and the contractile force recovered despite the continued presence of tubocurarine. To quantify the ability of the compound to restore force the percentage of the initial force that was restored was determined after 40 mins of compound exposure (FIG. 2B) and the point increase is reported in Table 3.

Another assay concerns female Lewis rats. Description: In situ isometric hindlimb force in anaesthetised rats under partial neuromuscular block by Cisatracurium. The class given is in vivo. Particulars: Rattus norvegicus, iv, 80 Hz stimulation, Cisatracurium block, read-out: increase in tetanic force. The procedure: Isometric hindlimb force was measured in 12-week old female Lewis rats in the presence and absence of compound.
Rats were placed under anesthesia with isoflurane (2-4%), intubated and subsequently connected to a micro ventilator (Microvent 1, Hallowell EMC, US). Two stimulation electrodes were inserted through the skin to stimulate the sciatic nerve. A small incision was made proximal to the ankle, to expose the Achilles tendon, which was tied by cotton string, and connected to a force transducer (Fort250, World Precision Instruments) with adjustable position (Vernier control). The Achilles tendon was then cut distal to the attached cotton string. The rat was placed on a heated pad, and to prevent movement artefacts from contraction of the ankle dorsiflexors, the foot was fixated by tape on a footplate.
Muscle contractile properties were assessed by applying an electrical current (under supramaximal voltage conditions) to the nerve and recording the force generated by the muscle. The muscle was stretched until maximal force was obtained, when assessed by 2 Hz stimulation. Isometric force was measured every 30 seconds at 12 Hz (Twitch), 10 pulses, and at every 5 minutes at 80 Hz (Tetanic) for 1 second (80 pulses). This stimulation pattern was employed throughout the experiment, expect in few cases where 80 Hz stimulation was replaced by 12 Hz (10 pulses). […] When the level of neuromuscular inhibition was stable, the test article was injected i.v. at the chosen concentration. The effect of test article was assessed on its ability to increase force generated from the stimulation pattern applied. The effect was assessed in the ability to increase force per se (tetanic, 80 Hz, stimulation), and the ratio between individual twitch peaks (12 Hz stimulation). The effect was monitored for at least 1 hour after injection of test article. In addition, the time from injection of test article to maximal effect on force (both twitch and tetanic) was noted and the time for the effect to disappear (return to baseline), if possible. When appropriate the infusion of neuromuscular blocking agent was ceased, with the stimulation pattern continued, and the return of force to control levels was monitored. Animals were sacrificed by cervical dislocation while still fully sedated.

The target in another assay is T1, CIC-1 ion channel (Rattus norvegicus, UniProt P35524).
T1 construct: from tissue; host or cells: intact soleus muscle of 12-14 week old Wistar rats
T1 sequence (P35524 1-994): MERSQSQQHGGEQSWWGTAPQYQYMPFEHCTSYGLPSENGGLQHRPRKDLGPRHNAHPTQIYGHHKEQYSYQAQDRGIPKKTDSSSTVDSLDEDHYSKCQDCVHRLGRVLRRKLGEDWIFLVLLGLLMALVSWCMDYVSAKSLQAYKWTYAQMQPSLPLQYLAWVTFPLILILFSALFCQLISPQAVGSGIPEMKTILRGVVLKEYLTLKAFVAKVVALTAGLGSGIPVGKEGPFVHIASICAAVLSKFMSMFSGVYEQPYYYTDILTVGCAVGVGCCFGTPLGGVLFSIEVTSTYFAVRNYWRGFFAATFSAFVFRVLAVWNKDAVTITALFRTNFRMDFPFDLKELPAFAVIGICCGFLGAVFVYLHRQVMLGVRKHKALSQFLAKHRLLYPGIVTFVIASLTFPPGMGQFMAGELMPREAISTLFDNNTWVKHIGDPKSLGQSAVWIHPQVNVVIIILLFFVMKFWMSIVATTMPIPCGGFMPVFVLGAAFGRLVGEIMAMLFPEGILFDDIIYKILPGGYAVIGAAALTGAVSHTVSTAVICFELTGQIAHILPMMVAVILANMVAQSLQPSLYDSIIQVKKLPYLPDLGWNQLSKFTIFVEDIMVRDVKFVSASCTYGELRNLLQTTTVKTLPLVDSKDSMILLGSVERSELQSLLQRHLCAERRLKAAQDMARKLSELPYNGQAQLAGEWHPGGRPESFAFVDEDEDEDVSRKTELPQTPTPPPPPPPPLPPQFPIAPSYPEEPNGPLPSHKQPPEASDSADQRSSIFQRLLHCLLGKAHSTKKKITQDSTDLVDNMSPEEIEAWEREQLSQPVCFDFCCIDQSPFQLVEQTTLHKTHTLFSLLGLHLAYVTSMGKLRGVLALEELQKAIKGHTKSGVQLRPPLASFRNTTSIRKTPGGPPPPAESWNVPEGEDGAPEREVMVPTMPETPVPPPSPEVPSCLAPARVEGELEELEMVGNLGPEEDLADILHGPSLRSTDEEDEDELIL
Description: Electrophysiological measurement (Gm, three micro-electrode technique) of compound inhibition of CIC-1 in rat soleus muscle fibres. The class given is cell-based. The note with it: whole rat soleus muscle, Gm at four increasing concentrations, approx. 30° C., mean ± spread.

Where [2] appears, read: 50 μM test compound, after 40 mins exposure, 115 nM tubocurarine for 90 mins, rat soleus.

On to `C[C@H](Oc1ccc(Br)cc1C(C)(F)F)C(=O)O` [Compound A-4, (2S)-2-[4-bromo-2-(1,1-difluoroethyl)phenoxy]propanoic acid], for which the activation at 50 µM in assay [1] (setting [2]) is 34%. Further, the change in vivo at 21.6 mg/kg with female Lewis rats (21.6 mg/kg i.v.) worked out at 34%.
Turning to `CCC(F)(F)c1cc(Br)ccc1OCC(=O)O` [Compound A-6, 2-[4-bromo-2-(1,1-difluoropropyl)phenoxy]acetic acid], the midpoint of the response on CIC-1 ion channel, the EC50, lay at 7500 ± 2900 nM. Also, in assay [1] (setting [2]), the activation at 50 µM was found to be 35%.
For the compound `CCC(F)(F)c1cc(Br)ccc1O[C@@H](CF)C(=O)O` [Compound A-11, (2R)-2-[4-bromo-2-(1,1-difluoropropyl)phenoxy]-3-fluoropropanoic acid], on CIC-1 ion channel, a half-maximal effect (EC50) was put at 1600 ± 200 nM. The change in vivo at 17.6 mg/kg with female Lewis rats (17.6 mg/kg i.v.) stood at 44%.
With `CC(F)(F)c1cc(Br)ccc1O[C@@H](CF)C(=O)O` [Compound A-16, (2R)-2-[4-bromo-2-(1,1-difluoroethyl)phenoxy]-3-fluoropropanoic acid], on CIC-1 ion channel, it took 3200 ± 800 nM to reach a half-maximal effect (EC50). Moreover, the change in vivo at 22.9 mg/kg in the assay with female Lewis rats (22.9 mg/kg i.v.) is 46%.
For `CCC(F)(F)c1cc(Br)ccc1O[C@@H](CCl)C(=O)O` [Compound A-17, (2R)-2-[4-bromo-2-(1,1-difluoropropyl)phenoxy]-3-chloropropanoic acid], the activation at 50 µM in assay [1] (setting [2]) is 48%.
For the compound `C#CC[C@H](Oc1ccc(Br)cc1C(F)(F)CC)C(=O)O` [Compound A-18, (2S)-2-[4-bromo-2-(1,1-difluoropropyl)phenoxy]pent-4-ynoic acid], the concentration for a half-maximal effect (EC50) (commonly the concentration giving half of the maximal effect) at CIC-1 ion channel stood at 4800 ± 1100 nM. Also, the activation at 50 µM in assay [1] (setting [2]) was found to be 31%.
As to `C#CC[C@H](Oc1ccc(Cl)cc1C(C)(F)F)C(=O)O` [Compound A-19, (2S)-2-[4-chloro-2-(1,1-difluoroethyl)phenoxy]pent-4-ynoic acid], the activation at 50 µM in assay [1] (setting [2]) came out at 27%.
Turning to `CCC(F)(F)c1cc(I)ccc1O[C@@H](C)C(=O)O` [Compound A-20, (2S)-2-[2-(1,1-difluoropropyl)-4-iodophenoxy]propanoic acid], the EC50 on CIC-1 ion channel came out at 1900 nM. Also, the activation at 50 µM in assay [1] (setting [2]) came out at 44%.
As to `CCC(F)(F)c1cc(Br)c(F)cc1O[C@@H](C)C(=O)O` [Compound A-24, (2S)-2-[4-bromo-2-(1,1-difluoropropyl)-5-fluorophenoxy]propanoic acid], it took 900 ± 200 nM to reach a half-maximal effect on CIC-1 ion channel (EC50).
Turning to `CCC(F)(F)c1cc(Br)c(F)cc1O[C@@H](CF)C(=O)O` [Compound A-34, (2R)-2-[4-bromo-2-(1,1-difluoropropyl)-5-fluorophenoxy]-3-fluoropropanoic acid], the EC50 at CIC-1 ion channel is 1100 ± 200 nM.
With `C=Cc1ccc(O[C@@H](C)C(=O)O)c(C(F)(F)CC)c1` [Compound A-35, (2S)-2-[2-(1,1-difluoropropyl)-4-ethenylphenoxy]propanoic acid], in assay [1] (setting [2]), the activation at 50 µM came to 20%.
On to `CC(C)C(F)(F)c1cc(Br)ccc1OCC(=O)O` [Compound A-38, 2-[4-bromo-2-(1,1-difluoro-2-methylpropyl)phenoxy]acetic acid], for which, on CIC-1 ion channel, the EC50 is 7400 nM.
Regarding `CCC(F)(F)c1cc(Cl)c(F)cc1OCC(=O)O` [Compound A-39, 2-[4-chloro-2-(1,1-difluoropropyl)-5-fluorophenoxy]acetic acid], on CIC-1 ion channel, the response was half-maximal at 7900 ± 3100 nM (EC50). In addition, the activation at 50 µM in assay [1] (Rattus norvegicus) is 37%.
Consider `CCC(F)(F)c1cc(Cl)c(F)cc1O[C@@H](CF)C(=O)O` [Compound A-41, (2R)-2-[4-chloro-2-(1,1-difluoropropyl)-5-fluorophenoxy]-3-fluoropropanoic acid], for which a half-maximal response on CIC-1 ion channel (EC50) required 1100 ± 400 nM.
With `CCC(F)(F)c1cc(Cl)c(Cl)cc1O[C@@H](C)C(=O)O` [Compound A-42, (2S)-2-[4,5-dichloro-2-(1,1-difluoropropyl)phenoxy]propanoic acid], the EC50 at CIC-1 ion channel turned out to be 2500 ± 300 nM. Further, the activation at 50 µM in assay [1] (Rattus norvegicus) was 30%.
Regarding `CC(F)(F)c1cc(Br)c(F)cc1O[C@@H](CF)C(=O)O` [Compound A-43, (2R)-2-[4-bromo-2-(1,1-difluoroethyl)-5-fluorophenoxy]-3-fluoropropanoic acid], a half-maximal response at CIC-1 ion channel (EC50) required 2900 ± 900 nM.
On to `CC(F)(F)c1cc(Cl)c(Cl)cc1O[C@@H](CF)C(=O)O` [Compound A-44, (2R)-2-[4,5-dichloro-2-(1,1-difluoroethyl)phenoxy]-3-fluoropropanoic acid], for which, in assay [1] (setting [2]), the activation at 50 µM is 24%.
Turning to `C=Cc1cc(C(F)(F)CC)c(O[C@@H](C)C(=O)O)cc1F` [Compound A-47, (2S)-2-[2-(1,1-difluoropropyl)-4-ethenyl-5-fluorophenoxy]propanoic acid], the activation at 50 µM in assay [1] (setting [2]) came to 31%.
In turn, `CC[C@H](Oc1cc(F)c(Br)cc1C(F)(F)CC)C(=O)O` [Compound A-48, (2S)-2-[4-bromo-2-(1,1-difluoropropyl)-5-fluorophenoxy]butanoic acid] had an EC50 on CIC-1 ion channel of 2000 nM.
Regarding `CC[C@H](Oc1cc(F)c(Cl)cc1C(F)(F)CC)C(=O)O` [Compound A-49, (2S)-2-[4-chloro-2-(1,1-difluoropropyl)-5-fluorophenoxy]butanoic acid], the activation at 50 µM in assay [1] (setting [2]) was found to be 24%.
Take `CCC(F)(F)c1cc([N+](=O)[O-])ccc1O[C@@H](C)C(=O)O` [Compound A-51, (2S)-2-[2-(1,1-difluoropropyl)-4-nitrophenoxy]propanoic acid]: the activation at 50 µM in assay [1] (setting [2]) amounted to 37%.
For `CCC(F)(F)c1cc(F)c(F)cc1O[C@@H](CF)C(=O)O` [Compound A-54, (2R)-2-[2-(1,1-difluoropropyl)-4,5-difluorophenoxy]-3-fluoropropanoic acid], in assay [1] (setting [2]), the activation at 50 µM was 36%.
Take “(2S)-2-[4-bromo-2-(1,1-difluoropropyl)(3,5,6-^2H3)phenoxy]propanoic acid [Compound A-30]”: the “Point increase (%) of initial force that was restored” value in assay [1] (setting [2]) was determined as 44%.
“(2S)-2-[4-bromo-2-(1,1-difluoropropyl)phenoxy](2-^2H)propanoic acid [Compound A-21]” yielded an EC50 on CIC-1 ion channel of 2600 nM. In assay [1] (setting [2]), the “Point increase (%) of initial force that was restored” value was 44%.
